Measured values published in patent US20260248920A1, “COMPOSITION FOR PREVENTING OR TREATING INFLAMMATORY DISEASES, CONTAINING POLY(ORGANOPHOSPHAZENE) POLYMER” (KOREA INSTITUTE OF SCIENCE AND TECHNOLOGY, priority 2022, published 2026).
Like-named read-outs stand apart in the source and are kept apart here.

Columns and labels:
[1] = test system: anti-inflammatory cytokines IL-4 and IL-10; test: RT-PCR of blood in defective Achilles tendon model: anti-inflammatory cytokines; type: in vivo, mice; details: 4 weeks
[2] = test system: defective Achilles tendon model; test: Hydroxyproline content analysis of tendon tissue; type: in vivo, mouse
Method: All experiments using mice were conducted in compliance with the relevant laws and institutional guidelines of the Institutional Animal Care and Use Committee (IACUC) of Korea University Medical Center and received IACUC approval (Approval No. KOREA-2018-0049). […] […] 1 mg) and […] […] To hydrolyze the tendon tissue, 5 mg was immersed in a 6N HCl solution and then heated at 120° C. for 3 hours. After hydrolysis, the tendon tissue was centrifuged at 3000 rpm for 3 minutes, and the supernatant was collected and transferred to a 96-well plate. Thereafter, the 96-well plate was incubated in a dry oven at 60° C. for 12 hours. A Chloramine T reagent (6 μL) was mixed with an oxidation buffer (94 μL), and the mixture was added to each sample or a standard solution. The resulting solution was slowly transferred to a 96-well plate, and a p-dimethylaminobenzaldehyde reagent (100 μL) was added to each sample or standard, and then incubated at 60° C. for 90 minutes. The hydroxyproline content was measured at an optical density of […] using a Flash Multimode Reader (VarioskanTM, Thermo Scientific, USA).

[3] = test system: defective Achilles tendon model; test: Biomechanical test of Achilles tendon (stiffness, tensile strength); type: in vivo, rats
[4] = cited from earlier work
[5] = in vivo; cited from earlier work

## Cc1ccc(-c2cc(C(F)(F)F)nn2-c2ccc(S(N)(=O)=O)cc2)cc1 [CXB, Celecoxib]
[1]; treated once
  IL-4 expression increase compared with control group: 1.2 fold
  IL-10 expression increase compared with control group: 1.3 fold
[1]; treated three times
  IL-4 expression increase compared with control group: 1.3 fold
  IL-10 expression increase compared with control group: 1.5 fold
[2]; injected once per week
  hydroxyproline content: 15.3 µg/mg
[2]; injected three times per week
  hydroxyproline content: 17.2 µg/mg
[3]; injected once per week
  stiffness: 16.4 N/mm
  tensile strength: 12.5 MPa
[3]; injected three times per week
  stiffness: 18.6 N/mm

## CC1(C)O[C@@H]2C[C@H]3[C@@H]4CCC5=CC(=O)C=C[C@]5(C)[C@@]4(F)[C@@H](O)C[C@]3(C)[C@]2(C(=O)CO)O1 [TCA, triamcinolone acetonide]
[4]; in vivo
  half-life: 1.47 h
[5]
  half-life of TCA without a delivery carrier: 1.27 h

## O=C(O)Cc1ccccc1Nc1c(Cl)cccc1Cl [diclofenac]
[4]; direct IA administration, reported by Larsen et al.
  half-life: 5.2 h
